Data on 11 compounds can be found in the supplement of paper PMC11451515.

Common to all, as to experiment: AUC of viability dose-response curve (% viability x log10 dose units); higher = less sensitive
Holding throughout (details): 48 h

The subject of one experiment is SEM cells. The gist of the method:
(§1)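 In 1536-well plates, leukemia cells adapted to each medium (500 or 1000 cells/well) were exposed for 48 h at 37°C to library compounds in DMSO across 11 threefold doses, 47 μM down to 0.79 nM. Viability was read by CellTiter-Glo One luminescence and normalised per plate to DMSO and cell-free wells. A four-parameter log-logistic fit over log10 doses was integrated by trapezoidal rule. This yielded the area under the curve, with over-full-viability curves scaled and quality-control failures dropped.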

The subject of a further experiment is P12-Ichikawa. The gist of the method:
as §1

For another experiment, the system named is NOMO1. A digest of the protocol: as §1
Where [1] appears, read: RPMI 5 mM glucose + 10% dialyzed FBS.

As to `Cn1cc(-c2ccncc2)c(-c2ccc(OCc3ccc4ccccc4n3)cc2)n1`, the “AUC of viability dose-response curve” value with SEM cells (HPLM + 10% dialyzed FBS) stood at 469; with SEM cells (RPMI 5 mM glucose + 10% FBS), 445; in the experiment on SEM cells (setting [1]), 465; in the experiment with P12-Ichikawa (HPLM + 10% dialyzed FBS), 449; with P12-Ichikawa (RPMI 5 mM glucose + 10% FBS) it was 433; in the experiment with P12-Ichikawa (setting [1]) it was 440. Also, the “AUC of viability dose-response curve” value stood at 454 in the experiment on NOMO1 (HPLM + 10% dialyzed FBS), 451 with NOMO1 (RPMI 5 mM glucose + 10% FBS) and 463 in the experiment with NOMO1 (setting [1]).
Take `NC\1=N\C(=O)N(\C=N1)[C@H]2C[C@H](O)[C@@H](CO)O2`: the “AUC of viability dose-response curve” value with SEM cells (HPLM + 10% dialyzed FBS) was determined as 362; in the experiment with SEM cells (RPMI 5 mM glucose + 10% FBS) it was 327; with SEM cells (setting [1]), 309; with P12-Ichikawa (HPLM + 10% dialyzed FBS), 382; in the experiment on P12-Ichikawa (RPMI 5 mM glucose + 10% FBS) it was 368; in the experiment on P12-Ichikawa (setting [1]), 378. Further, the “AUC of viability dose-response curve” value with NOMO1 (HPLM + 10% dialyzed FBS) amounted to 375; with NOMO1 (RPMI 5 mM glucose + 10% FBS), 402; in the experiment on NOMO1 (setting [1]) it was 417.
In the case of `CCCCCCCCCCCCCCCC(=O)OC[C@@H](NC(=O)C(Cl)Cl)[C@H](O)c1ccc([N+](=O)[O-])cc1`, the “AUC of viability dose-response curve” value in the experiment with SEM cells (HPLM + 10% dialyzed FBS) worked out at 464; in the experiment on SEM cells (RPMI 5 mM glucose + 10% FBS) it was 468; in the experiment with SEM cells (setting [1]), 455; in the experiment with P12-Ichikawa (HPLM + 10% dialyzed FBS), 470; with P12-Ichikawa (RPMI 5 mM glucose + 10% FBS) it was 429; in the experiment with P12-Ichikawa (setting [1]) it was 461. The “AUC of viability dose-response curve” value in the experiment with NOMO1 (HPLM + 10% dialyzed FBS) was determined as 450; in the experiment on NOMO1 (RPMI 5 mM glucose + 10% FBS), 461; with NOMO1 (setting [1]) it was 445.
With `NC12CC3CC(CC(C3)C1)C2`, the “AUC of viability dose-response curve” value was found to be 435 with SEM cells (HPLM + 10% dialyzed FBS); 401 in the experiment with SEM cells (RPMI 5 mM glucose + 10% FBS); 371 in the experiment on SEM cells (setting [1]); 466 in the experiment on P12-Ichikawa (HPLM + 10% dialyzed FBS); 466 in the experiment on P12-Ichikawa (RPMI 5 mM glucose + 10% FBS); 476 in the experiment on P12-Ichikawa (setting [1]). The “AUC of viability dose-response curve” value with NOMO1 (HPLM + 10% dialyzed FBS) came out at 448; with NOMO1 (RPMI 5 mM glucose + 10% FBS), 470; in the experiment on NOMO1 (setting [1]) it was 461.
Turning to `CC(C)[C@H](CO)Nc1nc(Nc2ccc(C(=O)O)c(Cl)c2)c2ncn(C(C)C)c2n1`, the “AUC of viability dose-response curve” value was found to be 428 in the experiment on SEM cells (HPLM + 10% dialyzed FBS); 412 in the experiment on SEM cells (RPMI 5 mM glucose + 10% FBS); 462 in the experiment on SEM cells (setting [1]); 432 with P12-Ichikawa (HPLM + 10% dialyzed FBS); 414 with P12-Ichikawa (RPMI 5 mM glucose + 10% FBS); 425 in the experiment on P12-Ichikawa (setting [1]). Besides, the results for the “AUC of viability dose-response curve” value in the experiment on NOMO1 (HPLM + 10% dialyzed FBS), in the experiment with NOMO1 (RPMI 5 mM glucose + 10% FBS) and with NOMO1 (setting [1]) were 428, 445 and 462, respectively.
Consider `COc1cc2ncnc(Nc3ccc(F)c(Cl)c3)c2cc1OCCCN1CCOCC1`, for which the “AUC of viability dose-response curve” value amounted to 408 in the experiment with SEM cells (HPLM + 10% dialyzed FBS); 419 in the experiment on SEM cells (RPMI 5 mM glucose + 10% FBS); 425 in the experiment with SEM cells (setting [1]); 446 in the experiment with P12-Ichikawa (HPLM + 10% dialyzed FBS); 446 in the experiment on P12-Ichikawa (RPMI 5 mM glucose + 10% FBS); 463 with P12-Ichikawa (setting [1]). Besides, the entries for the “AUC of viability dose-response curve” value in the experiment with NOMO1 (HPLM + 10% dialyzed FBS), in the experiment on NOMO1 (RPMI 5 mM glucose + 10% FBS) and in the experiment on NOMO1 (setting [1]) were 425, 452 and 443, respectively.
For `O=P(O)(O)C(O)(Cc1cccnc1)P(=O)(O)[O][Na]` (stereo not drawn), the “AUC of viability dose-response curve” value in the experiment with SEM cells (HPLM + 10% dialyzed FBS) worked out at 411; in the experiment on SEM cells (RPMI 5 mM glucose + 10% FBS) it was 409; with SEM cells (setting [1]) it was 406.
As for `CN(C)c1nc(N(C)C)nc(N(C)C)n1`, the “AUC of viability dose-response curve” value in the experiment on SEM cells (HPLM + 10% dialyzed FBS) turned out to be 465; in the experiment with SEM cells (RPMI 5 mM glucose + 10% FBS), 453; in the experiment with SEM cells (setting [1]), 461; in the experiment on P12-Ichikawa (HPLM + 10% dialyzed FBS), 435; in the experiment with P12-Ichikawa (RPMI 5 mM glucose + 10% FBS), 436; in the experiment on P12-Ichikawa (setting [1]), 441. Besides, the “AUC of viability dose-response curve” value with NOMO1 (HPLM + 10% dialyzed FBS) amounted to 440; with NOMO1 (RPMI 5 mM glucose + 10% FBS) it was 454; in the experiment with NOMO1 (setting [1]) it was 454.
For the compound `CC1=C(C)C2=C(S1)[N]3C(=NN=C3[C@H](CC(=O)OC(C)(C)C)/N=C2/C4=CC=C(Cl)C=C4)C`, the “AUC of viability dose-response curve” value was 249 in the experiment with SEM cells (HPLM + 10% dialyzed FBS); 264 in the experiment on SEM cells (RPMI 5 mM glucose + 10% FBS); 251 with SEM cells (setting [1]); 311 in the experiment on P12-Ichikawa (HPLM + 10% dialyzed FBS); 313 with P12-Ichikawa (RPMI 5 mM glucose + 10% FBS); 305 with P12-Ichikawa (setting [1]). The figures for the “AUC of viability dose-response curve” value with NOMO1 (HPLM + 10% dialyzed FBS), in the experiment with NOMO1 (RPMI 5 mM glucose + 10% FBS) and in the experiment on NOMO1 (setting [1]) were 292, 286 and 296, respectively.
For the compound `C[C@@H]1CN(CC(=O)N2CC(C)(C)c3ncc(Cc4ccc(F)cc4)cc32)[C@@H](CN2CCOC[C@H]2C)CN1`, the “AUC of viability dose-response curve” value in the experiment with SEM cells (HPLM + 10% dialyzed FBS) is 448; in the experiment with SEM cells (RPMI 5 mM glucose + 10% FBS), 402; in the experiment on SEM cells (setting [1]) it was 465; in the experiment on P12-Ichikawa (HPLM + 10% dialyzed FBS) it was 463; in the experiment on P12-Ichikawa (RPMI 5 mM glucose + 10% FBS), 449; in the experiment with P12-Ichikawa (setting [1]), 477. For the same compound, the “AUC of viability dose-response curve” value in the experiment on NOMO1 (HPLM + 10% dialyzed FBS) is 442; in the experiment on NOMO1 (RPMI 5 mM glucose + 10% FBS), 456; with NOMO1 (setting [1]), 459.
`Cc1nc2c([nH]1)-c1ccccc1N(C(=O)c1ccc(NC(=O)c3ccccc3-c3ccccc3)cc1)CC2`: the “AUC of viability dose-response curve” value with SEM cells (HPLM + 10% dialyzed FBS) is 451; with SEM cells (RPMI 5 mM glucose + 10% FBS), 457; in the experiment with SEM cells (setting [1]), 449; in the experiment on P12-Ichikawa (HPLM + 10% dialyzed FBS), 466; in the experiment on P12-Ichikawa (RPMI 5 mM glucose + 10% FBS), 467; in the experiment on P12-Ichikawa (setting [1]), 471. The “AUC of viability dose-response curve” value in the experiment on NOMO1 (HPLM + 10% dialyzed FBS) was 470; in the experiment on NOMO1 (RPMI 5 mM glucose + 10% FBS), 444; in the experiment with NOMO1 (setting [1]), 468.
